{
  "source": "patent US20230045196A1",
  "about": "“METHODS OF CONTROLLING OR PREVENTING INFESTATION OF PEANUT PLANTS BY PHYTOPATHOGENIC MICROORGANISMS” (SYNGENTA CROP PROTECTION AG, priority 2019, published 2023)",
  "test_system": "Cercospora arachidicola",
  "experiment": "Peanut field trial, in-furrow soil application at planting, leafspot disease severity",
  "format": "in vivo, Cercospora arachidicola on peanut (Arachis hypogaea)",
  "conditions": "63 days after planting, peanut Ga 09b, COMPOUND 1 SC450 200 g AI/ha, Fluopyram SC500 250 g AI/ha",
  "procedure": "A peanut field trial was carried out in […], Georgia, USA, to evaluate the efficacy of different compounds against the leafspot disease Cercospora arachidicola. Plot borders (peanuts) were planted in early May and left untreated until there was significant leafspot infection on the borders.\nThe peanuts were then planted in July and treatments applied in-furrow at the same day. The disease occurred mid of September and an assessment on disease severity (% infected area) was done 63 days after planting.\nPest Severity, 63 Days after Planting",
  "data": [
    {"smiles": "O=C(NCCc1ncc(C(F)(F)F)cc1Cl)c1ccccc1C(F)(F)F", "note": "[Fluopyram]", "values": [
      {"measurement": "% efficacy based on pest severity", "result": 52.64, "unit": "%"},
      {"measurement": "% efficacy based on pest severity", "setting": "listed as commercial standard compound 2", "result": 53, "unit": "%"},
      {"measurement": "Pest severity (%)", "setting": "% infected area", "result": "15,A %"}
    ]}
  ]
}
